# Test results from patent US5087712A, “Derivatives of platinum (II) with polymethylsiloxane, method for preparing same and antitumor agent based thereon” (priority 1989, dated 1992).
# Columns and labels:
# [1] = system: regrafted Schvetz's erythroleukosis; assay: Antitumor activity against regrafted Schvetz's erythroleukosis in rats; assay type: in vivo, white non-descript rats
# Experimental: Their antitumor activity was studies in respect of regrafted Schvetz's erythroleukosis. The antitumor activity of each of the compounds according to the present invention was assessed from the experiments carried out on white non-descript rats with a mass of 150-200 g (10 animals in a group). The animals were hypodermally inoculated (in the thigh) with 2×10^8 cells of a regrafted Schvetz's erythroleukosis strain. On the 4th day after inoculation of the tumor cells, i.e. during the period of the lograithmic phase of the tumor growth the animals were administered with the compounds according to the present invention. They were administered once intraperitoneally or directly into the tumor node as powders. The compounds according to the present invention were administered in maximum effective and minimum effective doses:
# The antitumor effect of the compounds according to the present invention was studies in comparison with the control and with the known preparations--CDDP and polymethylsiloxane.
# The administered dose of CDDF was 8.1 mg/kg, that of polymethylsiloxane--4,000 mg/kg. […] Polymethylsiloxane was introduced in the form of a powder. Prior to administration the powders of polymethylsiloxane and of the compounds according to the present invention were sterilized by autoclaving in sealed flasks or in package from parchment paper for one hour under the excessive pressure of 1.0 atm and at the temperatuer of 100° C.
# The animals were narcotized by way of a hypodermal injection of hexenal in a dose of from 40 to 60 mg/kg in the case of an intraperitoneal adminsitration of the compounds according to the present invention. […]
# The antitumor activity of the test compounds was assessed for the following biological characteristics; the degree of inhibition of the tumor growth, survival of animals on the 10th day after inoculation of the tumor cells, life span of the animals.
# [2] = system: inner organs; assay: Autopsy, morphological and histological investigations of inner organs; assay type: in vivo, rats; mice; conditions: doses lesser than the toxic one, 30th day after administration
# Experimental: The dead animals were subjected to an autopsy and morpholigical and histological investigations of the inner organs were performed. The animals administered with the compounds in doses lesser than the toxic one were slaughtered after 3, 7, 14 and 30 days. Their inner organs were also subjected to an autopsy.
# [3] = system: cell immunity; assay: Effect on cell immunity: time of rejection of a skin graft in tumor-carriers; assay type: in vivo, male rats of the Vistar line
# Experimental: (§1) The immunological activity of the compound II according to the present invention was studied by variation of the characteristics of cellular and humoral immunity.
# (§2) The effect of the compound II according to the present invention on the cell immunity was assessed by the time of rejection of a skin graft in the tumor-carriers. The effect on the humoral immunity was assessed by the number of antibody-forming cells in the spleen and antibodies in the blood serum formed in response to immunization, with ram ertyhrocytes, of both intact animals and the tumor-carriers.
# The effect of the compound II according to the present invention on the cell immunity was studied on male rats of the Vistar line with a mass of 150-200 g. The animals were subjected to transplantation, by a standard method, of a skin graft of 2×3 cm size taken from rats of the August line. Then the animals were inoculated, under the thigh skin, with 2×10^8 cells of a regrafted strain of Schvetz's erythroleukosis.
# CDDP was administered in a solution, while polymethylsiloxane and the compound II of the present invention--as a powder which was introduced into an opened abdominal cavity following to above-described procedure. The intact animals were used as a control. The time of rejection of the skin graft was fixed by variation of its temperature, colour and elasticity.
# [4] = system: humoral immunity; assay: Effect on humoral immunity: antibody-forming cells in spleen and antibodies in blood serum of tumor-carriers; assay type: in vivo, rats of the Vistar line
# Experimental: as §1, §2
# Use was made of rats of the Vistar line which were incoulated, under the thigh skin, with 2×10^8 cells of a regrafted strain of Schvetz'erthroleukosis. […] On the 8th day after regrafting of the tumor the animals were subjected to immuniation by way of an intravenous administration of ram erythrocytes in the dose of1×10^6 cells. 4 days after immunization the animals were slaughtered by decapitation against the background of ethereal narcosis, the spleen was taken out and the content of antobidy-forming cells was determined threein by Erne'method, as well as titres of agglutinines and hemolysines in the peripheral blood using known methods.
# The content of antibody-forming cells was determined for 10^6 splenocytes and for the entire mass of the spleen.
# [5] = system: ovary cancer; assay: Clinical tests in patients with ovary cancer of the IV clinical stage; assay type: in vivo, human patients
# Excerpt: Depending on the treatment method all the patients were divided into 2 groups.
# [6] = system: ovary carcinoma; conditions: in combination with vinblastin, actinomycin and prednisolone; cited from earlier work
# [7] = 4 days after immunization with ram erythrocytes
# [8] = group I: compound II then CDDP, 1 year after operation, group II: CDDP only, 9 months-1 year
# [9] = group I: compound II then CDDP, 2-3.5 years after the operation, group II: CDDP only
smiles,measurement,setting,value
"N.N.[Cl][Pt][Cl] [CDDP, cis-dichlorodiammonioplatinum (II)]",Survival of animals,[1]; on the 10th day after inoculation of the tumor cells,80%
same,Life span,[1]; rats with Schvetz's erythroleukosis,11.5 ± 0.5 days
same,Degree of inhibition of the tumor growth,"[1]; rats, single intraperitoneal or intratumoral administration on 4th day after inoculation",78%
same,Degree and restoration of histological changes,[2],"pronounced to even greater extent than in the case of administration of the compounds according to the present invention, they were only partly restored on the 30th day after administration"
same,Effect on characteristics of the cell immunity of tumor-carriers (in words),[3],does not substantially affect the characteristics of the cell immunity of the tumor-carriers
same,Time of rejection of a skin graft,"[3]; intraperitoneal CDDP 5.6, polymethylsiloxane 2,000, compound II 550 mg/kg",13.5 ± 0.5 days
same,Effect on humoral immunity (in words),[4],inhibits the humoral immunity
same,Content of antibody-forming cells for the entire spleen,[4]; [7],(36.42 ± 2.15) × 10^3
same,Content of antibody-forming cells per 10^6 of splenocytes,[4]; [7],20.50 ± 2.15
same,"Full remission, number of patients","[5]; group I (30): compound II then CDDP, group II (47): CDDP only",14 patients
same,"Full remission, share of patients","[5]; group I (30 patients): compound II during operation then intraperitoneal CDDP, 2-3.5 years, group II (47 patients): CDDP only",30%
same,"Deaths, number of patients",[5]; [8],9 persons
same,"Deaths, share of patients",[5]; [8],19%
same,"Partial remission and stabilization of the process, number of patients",[5]; [9],14 persons
same,"Partial remission and stabilization of the process, share of patients",[5]; [9],30%
same,"Recurrence of the tumor growth, number of patients",[5]; group II: CDDP only,10 persons
same,"Recurrence of the tumor growth, share of patients",[5]; group II: CDDP only,21%
same,Effectiveness of therapy of ovary carcinoma,[6],100%
